# From US4137241A, “Deoxy-(0-8)-epi-17-salinomycin (1)” (priority 1977, dated 1979)
# Legend:
# [1] = Oral (per os) toxicity (LD50); details: in vivo
# DOCA-Na. rat = assay: Subacute antihypertensive activity in the DOCA-Na rat versus bromolasalocid (AHR, onset, duration); assay type: in vivo
# Experimental: (§1) A test was conducted for antihypertensive activity in the DOCA Na rat. DOCA rats weighing 170 to 210 grams are used in the test. DOCA Na Hypertension is induced by unilateral nephrectomy followed by subcutaneous implantation of a 25 mg. desoxycorticosterone (DOCA) pellet. Animals are placed in individual cages receiving 0.9% sodium chloride solution to drink and rat chow diet ad libitum. Two weeks are allowed to elapse from the time of surgery for development of hypertension, i.e., systolic blood pressure of at least 150 mmHg.
# (§2) Systolic blood pressure and heart rate are measured indirectly from the tail pressure pulse of unanesthetized rats, using a pneumatic pulse transducer. Control readings are taken prior to drug and post drug readings are taken at 1, 3, 6 and 24 hours.
# The experimental results are represented as absolute values. Drug-related alterations in systolic blood pressure are expressed as percentage change by comparing control absolute values with post drug absolute values. […] However, the reduction in blood pressure must show mathematical significance ([…]).
# Using bromolasalocid as a standard for comparison, a number of the novel episalinomycin of the present invention was tested for antihypertensive activity. The tests were conducted utilizing single oral dosages in the DOCA-Na. rat over a five-day period with dosing discontinued thereafter. Blood pressure monitoring was carried out for the five-day period and daily after cessation of dosing until blood pressure returned to predrug levels. […] The antihypertensive activity expressed as AHR (Subacute antihypertensive ratio) was calculated using bromolasalocid as the standard reference (Table III).
# Mycobacterium phlei = assay: Antimicrobial spectrum, agar diffusion technique; assay type: cell-based; details: Mycolicibacterium phlei
# Description: (§3) M.I.C. Values in mcg/ml utilizing the
# (§4) Test Organism agar diffusion technique
# Sarcina lutea = assay: Antimicrobial spectrum, agar diffusion technique; assay type: cell-based; details: Micrococcus luteus
# Description: as §3, §4
# Bacillus sp. E = assay: Antimicrobial spectrum, agar diffusion technique; assay type: cell-based
# Description: as §3, §4
# Bacillus subtilis = assay: Antimicrobial spectrum, agar diffusion technique; assay type: cell-based
# Description: as §3, §4
# Paecilomyces varioti = assay: Antimicrobial spectrum, agar diffusion technique; assay type: cell-based
# Description: as §3, §4
# Bacillus megaterium = assay: Antimicrobial spectrum, agar diffusion technique; assay type: cell-based; details: Priestia megaterium
# Description: as §3, §4
# Actinomyces cellulosae = assay: Antimicrobial spectrum, agar diffusion technique; assay type: cell-based; details: Streptomyces cellulosae
# Description: as §3, §4
# Bacillus sp. TA = assay: Antimicrobial spectrum, agar diffusion technique; assay type: cell-based
# Description: as §3, §4
# Candida albicans = assay: Antimicrobial spectrum, agar diffusion technique; assay type: cell-based
# Description: as §3, §4
# Staphylococcus aureus = assay: Antimicrobial spectrum, agar diffusion technique; assay type: cell-based
# Description: as §3, §4
# DOCA Na rat = assay: Antihypertensive activity in the DOCA Na rat, five-day oral dosing, systolic blood pressure; assay type: in vivo
# Experimental: as §1, §2
# The experimental results are represented as absolute values. Drug-related alterations in systolic blood pressure are expressed as percentage change by comparing control absolute values with post drug absolute values. Compounds are considered active when about a 15% or greater reduction in blood pressure is obtained. However, the reduction in blood pressure must show mathematical significance ([…]).
# A derivative of the polyether ionophore, lasalocid, i.e., the bromo derivative of lasalocid, was tested in the above screen. The compound was orally administered for a five-day period by intubation and thereafter dosing was discontinued but blood pressure monitoring was continued. The following table illustrates the results obtained utilizing bromolasalocid as the test drug.
# [2] = daily oral dose 1/100 of LD50 up to 10 mg/kg/day, five days
compound,measurement,setting,value
"CCC(C(=O)O)C1CCC(C)C(C(C)C(O)C(C)C(=O)C(CC)C2OC3(C=CCC4(CCC(C)(C5CCC(O)(CC)C(C)O5)O4)O3)C(C)CC2C)O1 (stereo not drawn) [Deoxy-(0-8)-epi-17-salinomycin, 6-[5-[2'-(5""-Ethyltetrahydro-5""-hydroxy-6""-methyl-(2""H)-pyran-2""-yl]-2' ,12' ,14'-trimethyl-1',10' ,15'-trioxadispiro[4.3.5.1]pentadec-7'-en-11'-yl]-5-ethyl-1,3-dimethyl-2-hydroxy-4-oxopentyl]-alpha-ethyl-tetrahydro-5-methyl-(2H)-pyran-2-acetic acid]",LD50,[1],> 1000 mg/kg
same,antihypertensive activity (in words),"DOCA-Na. rat; DOCA-Na rat, oral, five-day period",exhibited antihypertensive activity
same,Duration of Effect,DOCA-Na. rat; [2],4 days
same,Onset to Max. Response,DOCA-Na. rat; [2],3 days
same,MIC,Mycobacterium phlei,500 µg/mL
same,MIC,Sarcina lutea,25 µg/mL
same,MIC,Bacillus sp. E,6.25 µg/mL
same,MIC,Bacillus subtilis,6.25 µg/mL
same,MIC,Paecilomyces varioti,15.7 µg/mL
same,MIC,Bacillus megaterium,6.25 µg/mL
same,MIC,Actinomyces cellulosae,250 µg/mL
same,MIC,Bacillus sp. TA,6.25 µg/mL
same,MIC,Candida albicans,2000 µg/mL
same,MIC,Staphylococcus aureus,25 µg/mL
CC[C@@H](C(=O)[C@@H](C)[C@@H](O)[C@H](C)CCc1c(Br)cc(C)c(O)c1C(=O)O)[C@H]1O[C@](CC)([C@H]2CC[C@](O)(CC)[C@H](C)O2)C[C@@H]1C [Bromolasalocid],Average Systolic Blood Pressure Per Group,"DOCA Na rat; 5 mg/kg per day oral for 5 days, Day 1 pm, pre-drug control (Day 1 am) 209",193 mmHg
same,Average Systolic Blood Pressure Per Group,"DOCA Na rat; 5 mg/kg per day oral for 5 days, Day 2 am, pre-drug control 209",206 mmHg
same,Average Systolic Blood Pressure Per Group,"DOCA Na rat; 5 mg/kg per day oral for 5 days, Day 2 pm, pre-drug control 209",194 mmHg
same,Average Systolic Blood Pressure Per Group,"DOCA Na rat; 5 mg/kg per day oral for 5 days, Day 3 am, pre-drug control 209",204 mmHg
same,Average Systolic Blood Pressure Per Group,"DOCA Na rat; 5 mg/kg per day oral for 5 days, Day 3 pm, pre-drug control 209",191 mmHg
same,Average Systolic Blood Pressure Per Group,"DOCA Na rat; 5 mg/kg per day oral for 5 days, Day 4 am, pre-drug control 209",206 mmHg
same,Average Systolic Blood Pressure Per Group,"DOCA Na rat; 5 mg/kg per day oral for 5 days, Day 4 pm, pre-drug control 209",201 mmHg
same,Average Systolic Blood Pressure Per Group,"DOCA Na rat; 5 mg/kg per day oral for 5 days, Day 5 am, pre-drug control 209",197 mmHg
same,Average Systolic Blood Pressure Per Group,"DOCA Na rat; 5 mg/kg per day oral for 5 days, Day 5 pm, pre-drug control 209",196 mmHg
same,Average Systolic Blood Pressure Per Group,"DOCA Na rat; 10 mg/kg per day oral for 5 days, Day 1 pm, p < .05, pre-drug control (Day 1 am) 217",192 mmHg
same,Average Systolic Blood Pressure Per Group,"DOCA Na rat; 10 mg/kg per day oral for 5 days, Day 2 am, p < .05, pre-drug control 217",181 mmHg
same,Average Systolic Blood Pressure Per Group,"DOCA Na rat; 10 mg/kg per day oral for 5 days, Day 2 pm, p < .05, pre-drug control 217",166 mmHg
same,Average Systolic Blood Pressure Per Group,"DOCA Na rat; 10 mg/kg per day oral for 5 days, Day 3 am, p < .05, pre-drug control 217",171 mmHg
same,Average Systolic Blood Pressure Per Group,"DOCA Na rat; 10 mg/kg per day oral for 5 days, Day 3 pm, p < .05, pre-drug control 217",163 mmHg
same,Average Systolic Blood Pressure Per Group,"DOCA Na rat; 10 mg/kg per day oral for 5 days, Day 4 am, p < .05, pre-drug control 217",173 mmHg
same,Average Systolic Blood Pressure Per Group,"DOCA Na rat; 10 mg/kg per day oral for 5 days, Day 4 pm, p < .05, pre-drug control 217",157 mmHg
same,Average Systolic Blood Pressure Per Group,"DOCA Na rat; 10 mg/kg per day oral for 5 days, Day 5 am, p < .05, pre-drug control 217",176 mmHg
same,Average Systolic Blood Pressure Per Group,"DOCA Na rat; 10 mg/kg per day oral for 5 days, Day 5 pm, p < .05, pre-drug control 217",166 mmHg
same,Period blood pressure remained below control after drug dosing,DOCA Na rat; after dosing for the first five consecutive days,10 days
